We go through one compound from EP4663207A1, “LYMPHATIC VESSEL CONTRAST AGENT WITHOUT VENOUS CONTAMINATION” (Inventera Inc., priority 2023, dated 2024).

In one series the test system is knee joint cavity. The series can be described thus: Magnetic resonance arthrography after intra-articular injection in rats. The series is classed as in vivo, Male Sprague-Dawley rats. On the procedure: Male Sprague-Dawley rats aged 7 weeks or older were anesthetized using a mixture of oxygen and isoflurane gas. INV-002 synthesized in Example 4-1 was then administered into the knee joint, and T1-weighted MRI images were acquired using a fast spin echo sequence.
For example, the T1 signal intensity of the synovial fluid increased from 4,900 (before injection) to 21,000 (after injection). Subsequently, the contrast-to-noise ratios (CNRs) of various anatomical regions within the joint cavity- including the meniscus, joint capsule, cruciate ligament, bone, and fat - were analyzed (FIG. 22F). The CNR was calculated as the difference in average signal intensity between the synovial fluid and each anatomical structure, divided by the standard deviation of the background signal. After INV-002 injection, the CNRs for the meniscus, capsule, cruciate ligament, bone, and fat regions increased by 10-fold, 8.5-fold, 18-fold, 14-fold, 12-fold, […], respectively, compared to pre-injection levels.
The contrast effect of INV-002 was not only stronger than that of the gadolinium-based contrast agent (e.g., Dotarem) but also lasted longer. For quantitative analysis of contrast enhancement, the signal-to-noise ratio (SNR) was measured at two intra-articular locations (indicated by orange arrows), and the average SNR was plotted over time. […]

In the next series the test system is lymphatic vessels. The series can be described thus: MRL after intradermal injection, Example 2. Format: in vivo, rats. To be noted: lower limb, checked with methylene blue. On the procedure: INV-001 was administered intradermally into the interdigital space of the lower limb of animals using a 31-gauge syringe. The injection volume was set at 10, 20, 30, 40, 50, or 75 microliters per animal, corresponding to a human equivalent dose of 2, 4, 6, 8, 10, or 15 mL, respectively.
Prior to MRI acquisition, the animals were anesthetized by inhalation of isoflurane delivered in oxygen at a concentration of 0.5-2%. If necessary, local anesthesia with lidocaine was applied to relieve procedural discomfort.
Baseline MRI images were acquired prior to the administration of the contrast agent. Following the injection of INV-001 prepared in Example 2-1, MRI scans were conducted every 16 minutes for a total of 96 minutes. The imaging sequence used was 3D Time-of-Flight Gradient Echo (3D TOF GRE), with images obtained in axial, sagittal, and coronal planes. […]
Maximum intensity projection (MIP) images were generated from the baseline and post-injection MRI data acquired at 16-minute intervals for 96 minutes. […] The overall image quality, including vessel discontinuity, was assessed using a four-point scale (-, +, ++, +++). Additionally, the presence of dermal backflow and lymph node congestion was evaluated. […]
To confirm the clearance of the injected contrast agent, the administration site was evaluated 24 hours after intradermal injection.

The subject of series [1] is popliteal lymph node and surrounding lymphatic vessels. Kind of series: Magnetic resonance lymphangiography (MRL) in rats, Example 1. Format: in vivo, male Sprague-Dawley (SD) rats. On the procedure: Specifically, all animals used in Example 1 were male Sprague-Dawley (SD) rats weighing 250-300 g. The prepared contrast agent was administered intradermally/subcutaneously into the fourth digits of both hind limbs using a 30-gauge needle. MRL was performed every 16 minutes using a 3D time-of-flight (TOF) sequence with a saturation band on a 9.4-T preclinical MRI scanner.
Gd-DOTA (Gd-DOTA, DOTAREM, Guerbet, Roissy CdG Cedex, France) was used as a Gd-based contrast agent. The Gd-DOTA stock solution, provided at a concentration of 500 mM, was diluted with normal saline before its administration.
The signal-to-noise ratio (SNR) and contrast-to-noise ratio (CNR) of the popliteal lymph node and surrounding lymphatic vessels were analyzed at a dose of 1.125 µmol (75 µL, 15 mM) of INV-001 and Gd-DOTA. Through sequential MRI imaging, dynamic patterns of SNR and CNR and peak time points in the popliteal lymph node and lymphatic vessels were obtained (FIG. 4a). […] In the 1.125 µmol INV-001 group, peak enhancement appeared between 16 and 32 minutes during extended visualization (SNRLN: 23.49 ± 8.64; SNRLV: 16.05 ± 3.52; CNRLN: 15.87 ± 11.05; CNRLV: 12.58 ± 3.37) (FIG. 4b).
Following injection of the contrast agents into the hind limb, magnetic resonance lymphangiography (MRL) was performed using 3D TOF under saturation band conditions to distinguish lymphatic vessels. […] In contrast, in all INV-001 groups, the popliteal lymph node and lymphatic vessels were clearly visualized without venous contamination (FIGs. 5e, 5f, and 5g, yellow arrows). Methylene blue was injected two days after MRL to verify the anatomical structures (FIGs. 5d and 5h).
Qualitative image analyses under various injection conditions were performed using Gd-DOTA and INV-001. In all groups, MRL provided good visualization of the popliteal lymph node and lymphatic vessels (FIG. 6). The qualitative image analysis was conducted according to the criteria shown in Table 1 (Criteria for qualitative score).

Series [2] in a line: MR relaxivity, phantom at 3 T. The conditions noted are these: 3 T MRI. An excerpt: The r2/r1 ratio serves as a metric for determining whether the nanoparticles are more appropriate for use as T1 MRI contrast agents or T2 MRI contrast agents.
The hydrodynamic diameter of the synthesized INV-001 was 3.9 nm with a surface charge of -3.3 mV. […] The particle size of this contrast agent exceeds the maximum size (2 nm) permissible for intravasation, thereby preventing its entry into blood vessels. Thus, it is theoretically suitable for use as a lymphatic-specific contrast agent that infiltrates the lymphatic vessels without venous contamination when administered intradermally or subcutaneously.
The measured r1 and r2 relaxivity values of NEMO-103 were 2.0 mM^-1s^-1 and 2.3 mM^-1s^-1, respectively (FIGS. 29d and 29e). The r2/r1 ratio, which is an important parameter for T1 MRI contrast agents, was calculated to be 1.15. […] For comparison, the measured r1 and r2 values of Dotarem® were 4.7 mM^-1s^-1 and 5.2 mM^-1s^-1, respectively, resulting in an r2/r1 ratio of 1.11.
To evaluate the T1 MRI performance of the materials from Example 7-7, both the spin-spin relaxivity coefficient (r2) and spin-lattice relaxivity coefficient (r1) were measured, and the r2/r1 ratio was calculated. The r2/r1 ratio is a critical indicator in determining whether a contrast agent is suitable for T1 or T2 MRI.

Series [3] can be described thus: MR relaxivity, phantom at 9.4 T. As to the method: The hydrodynamic size of INV-001 was measured to be 3.6 nm (FIG. 3b). Subsequently, the T1 and T2 relaxation rates (1/T1 and 1/T2) of INV-001 were measured at 9.4 T (FIG. 3c). The longitudinal and transverse relaxivities (r1 and r2) were calculated at various INV-001 concentrations (0.125, 0.25, 0.5, and 1.0 mM). The r1 was determined to be 2.61 mM^-1·s^-1 and the r2 was 4.33 mM^-1·s^-1 (FIGS. 3d and 3e).

The mark [4] stands for this setting: 1.125 µmol (75 µL, 15 mM), at peak enhancement.

Where two headings read alike, the source gives them in different places.

As to `CNC[C@H](O)[C@@H](O)[C@H](O)[C@H](O)CO.O=C([O-])CN1CCN(CC(=O)[O-])CCN(CC(=O)O)CCN(CC(=O)[O-])CC1.[Gd+3]` [Gd-DOTA], the “time of peak SNR post-injection” value with knee joint cavity (average of two intra-articular locations) came out at 0.25 h. Besides, in the series with knee joint cavity (post-injection), the “SNR dropped to baseline within” value is at most 0.5 h. For the same compound, the “enhancement of lymphatic vessels versus veins (venous contamination)” value in the series on lymphatic vessels was “preferentially enhanced veins more than lymphatic vessels”. Also, the qualitative score in series [1] is recorded as 3.2; in series [1] (2.25 µmol (75 µL, 30 mM)) it was 3.8. Also, the venous contamination result in series [1] (1.125 µmol (75 µL, 15 mM), hind limb) is “venous contamination was observed”; in series [1] (2.25 µmol (75 µL, 30 mM), hind limb), “venous contamination was observed”; in series [1] (doses of 0.45 µmol or higher (discussion)), “venous contamination in most animals”. For the same compound, in series [1] (setting [4]), the CNRLN is listed as 21.61 ± 10.04. The CNRLV in series [1] (setting [4]) is 7.89 ± 5.15. Moreover, the SNRLV in series [1] (setting [4]) amounted to 11.15 ± 5.83. In addition, in series [1] (1.125 µmol (75 µL, 15 mM), at peak enhancement (Gd-DOTA 16 min, INV-001 16-32 min)), the SNRLN was 26.96 ± 10.78. Besides, the “time of peak enhancement post-injection” value in series [1] (popliteal lymph node and lymphatic vessels, scans every 16 min) was determined as 16 min. Besides, the r1 in series [2] came to 4.7 mM⁻¹ s⁻¹. Also, the “T1 contrast enhancement in phantom studies” value in series [3] was around 3.7 mM⁻¹ s⁻¹.
